The values below come from patent US4921960A, “Quinoline thioethers” (priority 1987, dated 1990).

Broadly, the LD50 is the dose expected to kill half of the subjects tested. A low value points to greater toxicity.

The test system of data set [1] is strychnine induced convulsions in rats. The data set can be described thus: Strychnine induced lethal convulsions. Format: in vivo, rat.
For data set [2], the system named is pentametazol induced convulsions in rats. The data set can be described thus: Pentametazol induced convulsions. As to conditions: for Deaths of pretreated animals / Effect on pentametazol convulsions: 10 mg/kg prior to 120 mg/kg s.c. pentametazol. The format is in vivo, rat.
A further data set concerns benzodiazepine receptors. Nature of the data set: In vitro binding, 3H-Diazepam displacement on rat brain membrane preparation. The conditions noted are these: 2 nM 3H-Diazepam, rat cortex membranes; for Displacement of 3H-Diazepam from its receptor: 1 hr at 0-4 °C; for IC50 value: both drugs compared. The protocol: The in vitro binding of compound A in comparison to that of chlordiazepoxide was measured on rat brain membrane preparation. Male CFY rat cortex was homogenized in 0.32M sucrose using glass homogenizer with teflon pestle. Nucleus was spun down at 1000 g for 15 min. The supernatant was centrifuged at 40,000 g for 15 min. The pellet was homogenized in 5 mM TRIS-citrate buffer pH 7.1 by a Polytron P10 and it was lyzed for 15 min. at 0° C. After centrifugation at 40,000 g for 15 min. the pellet was taken up in 50 mM TRIS-citrate buffer pH 7.1 and kept overnight at -20° C. After thawing and centrifugation (40,000 g for 15 min.) the pellet was washed in 50 mM TRIS-citrate buffer pH 7.1 three times by centrifugation. The final pellet was taken up in the same buffer in 1:30 volume. Ligand: 2 nM ^3 H-Diazepam (sp. act. 86 Ci/mmol).
Incubation: 1 hr at 0°-4° C. in 50 mM TRIS-citrate buffer ph 7.1
Final protein concentration: ca. 0.5 mg/ml.
The binding was stopped by dilution with cold buffer and rapid filtration on GF/B Whatman filter paper.
For the displacement we used six different concentrations of drugs, run with 3 parallels. Experiments were repeated two times. Compound A was dissolved in cc. acetic acid and distilled water then the 10^-3 M solution was further diluted with incubation buffer. Blank solution was prepared in the same way without containing the drug. Chlordiazepoxide was dissolved in the incubation buffer.
In general terms: Loss of bound radioactivity is the signal in a displacement assay; it reports binding, not function.

Data set [3] deals with electroshock-induced convulsions in rats. The data set can be described thus: Electroshock-induced lethal convulsions. The format is in vivo, rat.
For data set [4], the system named is picrotoxin induced convulsions in rats. The format is in vivo, rat.
Data set [5] can be described thus: Acute toxicity, oral LD50. As to conditions: rat, in vivo, CFY rats, deaths within 48 h, Litchfield and Wilcoxon. The protocol: Acute toxicity was assessed on CFY rats (100-160 g). Groups of 10 rats were used. Compound A was administered orally (in volume of 10 ml/kg). The animals starved for 16 h before the experiment. Each dose was administered to a group of animals equally subdivided into males and females. Deaths occurring within 48 h were considered. LD50 values were calculated on the basis of the graphical method of Litchfield and Wilcoxon.

A further data set deals with Male CFY rats. Nature of the data set: "Conflict" test: water consumption of food-deprived rats without punishment and in punished situation (anti-anxiety versus sedative effect). The format is in vivo, rat. The conditions noted are these: for Sedative dose (numerator of ratio): as printed in b54 without unit, see Tables I and III; for Water consumption (ml) punished situation / Water consumption (ml) without punishment: 30 min prior; for Ratio between the sedative and anxiolytic dose: Tables I and III; for Anxiolytic effect in presence of RO-15-1788 (selective benzodiazepine receptor antagonist): Tables II and IV. The protocol:
The essential strategy for measuring the anti-anxiety effecct of a drug is to check its activity in a conflict situation. We elicit a rewarded response, then suppress that response by punishing it when it occurs and the anti-anxiety effect is measured by the drug-induced increase in punished responding, whereas the sedative effect is measured by the drug-induced decrease of unpunished responding.
This means that when we circuit the drinking tube and the grid floor of the cage and the rat is regularly shocked by trying to drink, the very hungry animal, which cannot eat without drinking, is maximally forced to overcome the hindrance. This is a sensitive test to check the anti-anxiety effect of a compound.
Male CFY rats, weighing 230-250 g, fed with standard food pellets and supplied with tap water ad libitum, were kept under controlled standard environmental conditions (room temperature between 22°-24° C.) in groups of ten for two weeks until used in the experiment. The rats kept in single cages during starvation were deprived of food for 96 hours and supplied with tap water ad libitum before the experiment.
Another aspect of the selection of the animals for the experiment was their visible physical fitness and normal activity after starvation.
A clear Plexiglass box (39×27×12 cm) with a stainless-steel grid floor supplied with a tray for the food pellets and with a drinking tube was used for the experiment. The grid floor, the drinking tube and an electric stimulator (Grass S48) were connected and electric shocks in this circuit were delivered for 10 s duration with 20 s intervals. The parameters of the current (100 V; 25 ohm; 7.5 ms; 5 Hz) were empirically selected using those electric shocks which inhibited the water consumption of the very hungry rats to one third of the control (unpunished) level.
The rats spend one hour in the apparatus after 96 hours of food deprivation.
The drugs were administered parenterally in doses of 0.5 ml/100 g body weight. We refrained from the oral administration of the compounds because of the long term food deprivation.
The Student t-test was used for statistical analysis. The anxiolytic effect was established in punished animals and the sedative effect in unpunished rats.

Setting [6] is: up to the oral dose of 200 mg/kg, rats.
Setting [7] is: pretreatment 200 mg/kg, 120 mg/kg s.c. pentametazol.
[8] abbreviates: chlordiazepoxide 0.05 mg/kg s.c.
Setting [9] is: chlordiazepoxide 0.1 mg/kg s.c.
The mark [10] stands for this setting: chlordiazepoxide 0.25 mg/kg s.c.
Where [11] appears, read: chlordiazepoxide 0.5 mg/kg s.c.
The mark [12] stands for this setting: chlordiazepoxide 2.5 mg/kg s.c.

As for `CCSc1c(N)cnc2cc(Cl)ccc12.Cl` [compound A, 3-amino-4-ethylthio-7-chloro-quinoline-hydrochloride], in data set [1] (up to the 200 mg/kg dose level, strychnine 2.5 mg/kg s.c.), the “Influence on strychnine induced lethal convulsions” value is reported as “not influenced at all”. For the same molecule, the “Protection against strychnine induced convulsions” value in data set [1] (setting [6]) is “ineffective”. Moreover, in data set [2] (compound A 200 mg/kg), the “Influence on the anticonvulsant effect of diazepam (10 mg/kg)” value is listed as “no influence”. Besides, in data set [2] (setting [7]), the “Severity of the pentametazol convulsions” value was “did not change”. The “Survival of pretreated animals” value in data set [2] (setting [7]) is “none of the pretreated animals survived”. Moreover, the “Protection against pentametazol induced convulsions” value in data set [2] (setting [6]) is reported as “ineffective”. In the data set on benzodiazepine receptors, the “Displacement of 3H-Diazepam from its receptor” value is listed as “concentration dependent manner”. For the same molecule, the IC50 value result at benzodiazepine receptors is on record as “in the same range of concentration”. In addition, the Animals died in data set [3] (200 mg/kg, electroshock-induced lethal convulsions) is recorded as 70%. For the same molecule, the “Protection against electroshock-induced convulsions” value in data set [3] (setting [6]) is “only slightly effective”. Further, the “Influence on picrotoxin induced lethal convulsions” value in data set [4] (pretreated rats, picrotoxin 10 mg/kg s.c.) was “remained unchanged”. Also, in data set [4] (setting [6]), the “Protection against picrotoxin induced convulsions” value was “ineffective”. This molecule also came in with an LD50 at 48 h in data set [5] of 465 mg/kg. In addition, the “Water consumption (ml) in punished situation” value in the data set on Male CFY rats (Table IV: compound A 5 μg/kg s.c. + RO 15-1788 10 mg/kg i.p.) is 3.1 ± 0.69 mL; in the data set on Male CFY rats (Table IV: compound A 5 μg/kg s.c. + RO 15-1788 20 mg/kg i.p.), 2.4 ± 0.39 mL; in the data set on Male CFY rats (Table IV: compound A 5 μg/kg s.c., RO 15-1788 none) it was 4.2 ± 0.37 mL. In addition, the “Sedative dose (numerator of ratio)” value in the data set on Male CFY rats is 2.5. The “Water consumption (ml) punished situation” value is 3.0 ± 0.27 mL in the data set on Male CFY rats (compound A 0.25 mg/kg s.c.); 1.9 ± 0.35 mL with Male CFY rats (compound A 2.5 mg/kg s.c.); 2.2 ± 0.32 mL in the data set with Male CFY rats (compound A 2.5 γ/kg s.c.); 3.8 ± 0.19 mL in the data set with Male CFY rats (compound A 5 γ/kg s.c.); 3.7 ± 0.44 mL with Male CFY rats (compound A 25 γ/kg s.c.). In addition, the “Water consumption (ml) without punishment” value with Male CFY rats (compound A 0.25 mg/kg s.c.) is 7.7 ± 0.45 mL; with Male CFY rats (compound A 2.5 mg/kg s.c.), 4.9 ± 0.91 mL; in the data set with Male CFY rats (compound A 2.5 γ/kg s.c.) it was 6.3 ± 0.46 mL; with Male CFY rats (compound A 5 γ/kg s.c.), 6.4 ± 0.33 mL; in the data set on Male CFY rats (compound A 25 γ/kg s.c.), 7.9 ± 0.58 mL. Besides, the “Anti-anxiety potency relative to chlordiazepoxide” value with Male CFY rats (conflict test) is on record as “about 20 times”. The “Ratio between the sedative and anxiolytic dose” value in the data set with Male CFY rats (conflict test) came to 500. Further, the “Anxiolytic effect in presence of RO-15-1788 (selective benzodiazepine receptor antagonist)” value with Male CFY rats (conflict test) is “antagonized”.

Molecule `CN1C(=O)CN=C(c2ccccc2)c2cc(Cl)ccc21` [diazepam] displayed an Animals died in data set [1] (10 mg/kg, strychnine 2.5 mg/kg s.c.) of 80%. In addition, in data set [2], the “Deaths of pretreated animals” value was “none of the pretreated animals died” and the “Effect on pentametazol convulsions” value is given as “mitigated the convulsions”. In data set [3] (electroshock-induced lethal convulsions, dose not given), the “Rats whose life was saved” value was 80%.

With `CNC1=Nc2ccc(Cl)cc2C(c2ccccc2)=[N+]([O-])C1` [chlordiazepoxide], the “Displacement of 3H-Diazepam from its receptor” value with benzodiazepine receptors is on record as “concentration dependent manner”. Besides, the IC50 value entry at benzodiazepine receptors is given as “in the same range of concentration”. Further, the “Water consumption (ml) in punished situation” value was determined as 4.1 ± 0.59 mL in the data set with Male CFY rats (Table II: chlordiazepoxide 0.1 mg/kg s.c. + RO 15-1788 5 mg/kg i.p.); 3.9 ± 0.43 mL in the data set on Male CFY rats (Table II: chlordiazepoxide 0.1 mg/kg s.c. + RO 15-1788 10 mg/kg i.p.); 2.8 ± 0.49 mL in the data set on Male CFY rats (Table II: chlordiazepoxide 0.1 mg/kg s.c. + RO 15-1788 20 mg/kg i.p.); 4.1 ± 0.31 mL in the data set on Male CFY rats (Table II: chlordiazepoxide 0.1 mg/kg s.c., RO 15-1788 none). Also, the “Sedative dose (numerator of ratio)” value in the data set with Male CFY rats is 10. The “Water consumption (ml) punished situation” value with Male CFY rats (setting [8]) was found to be 3.5 ± 0.47 mL; in the data set on Male CFY rats (setting [9]), 4.1 ± 0.31 mL; in the data set on Male CFY rats (setting [10]) it was 3.5 ± 0.62 mL; with Male CFY rats (setting [11]) it was 3.1 ± 0.54 mL; in the data set with Male CFY rats (chlordiazepoxide 1 mg/kg s.c.) it was 2.7 ± 0.58 mL; with Male CFY rats (setting [12]), 4.1 ± 0.39 mL. Moreover, the “Water consumption (ml) punished situation” value in the data set with Male CFY rats (chlordiazepoxide 5 mg/kg s.c.) is 2.5 ± 0.31 mL; in the data set with Male CFY rats (chlordiazepoxide 10 mg/kg s.c.) it was 1.6 ± 0.26 mL. Moreover, the “Water consumption (ml) without punishment” value in the data set with Male CFY rats (setting [8]) came out at 5.1 ± 0.56 mL; in the data set with Male CFY rats (setting [9]) it was 5.8 ± 0.42 mL; in the data set with Male CFY rats (setting [10]), 6.2 ± 0.37 mL; in the data set with Male CFY rats (setting [11]), 7.4 ± 0.77 mL; in the data set on Male CFY rats (chlordiazepoxide 1 mg/kg s.c.), 5.4 ± 0.68 mL; in the data set with Male CFY rats (setting [12]), 5.2 ± 0.72 mL. In addition, the results for the “Water consumption (ml) without punishment” value in the data set with Male CFY rats (chlordiazepoxide 5 mg/kg s.c.) and with Male CFY rats (chlordiazepoxide 10 mg/kg s.c.) were 5.4 ± 0.62 mL and 1.8 ± 0.30 mL, respectively. For the same molecule, the “Ratio between the sedative and anxiolytic dose” value in the data set with Male CFY rats (conflict test) is 100. Moreover, in the data set with Male CFY rats (conflict test), the “Anxiolytic effect in presence of RO-15-1788 (selective benzodiazepine receptor antagonist)” value is reported as “antagonized”. The same molecule had a Sedative dose range in the data set with Male CFY rats (subcutaneous, conflict test, unpunished rats) of 10 mg/kg.

Molecule `CCC1(c2ccccc2)C(=O)NC(=O)NC1=O` [phenobarbital Na] returned an Animals died in data set [1] (50 mg/kg, strychnine 2.5 mg/kg s.c.) of 40%. Besides, in data set [2], the “Deaths of pretreated animals” value is given as “none of the pretreated animals died” and the “Effect on pentametazol convulsions” value is recorded as “mitigated the convulsions”. For the same molecule, the “Protection against electrogenic convulsions” value in data set [3] (30-50 mg/kg) was “completely protected”. The same molecule came in with an Animals died in data set [4] (50 mg/kg, picrotoxin 10 mg/kg s.c.) of 80%.
